Assay results as given in patent US7118745B1, “Engineering antibodies that bind irreversibly” (The Regents of the University of California, priority 1999, dated 2006).

Key:
S95C Fab light chain = assay: Covalent cross-linking of 111In-labeled chelates to S95C Fab in culture medium (SDS-PAGE, phosphorimage); type: biochemical, mouse/human chimeric; settings: 111In-labeled chelate, culture medium containing S95C mutant, 30 minutes
Method: FIG. 18 is a phosphorimage of a 15% SDS-PAGE gel of samples incubated 30 minutes at 37° C. Chelates (CABE, CpABE, AABE, ABE) are in lanes 1–4, along with culture medium containing the S95C mutant. The (radiolabeled) band (at 26 kDa) in lane 1 is the crosslink between CABE (our positive control) and S95C Fab light chain. […] No crosslinks are observed with the non-nucleophilic native Fab, nor with the N96C mutant.
100 μl of complete culture medium from S2 cultures expressing each of the CHA255 Chimeric Fabs was mixed with 5 μl of 100 mM DOTA to sequester Cu^2+ from induction of expression. Each chelate was loaded with ^111In as previously described with a specific activity of 200 μCi. Complete metallation was analyzed by TLC as described previously. Specifically, 1 μl of chelate was added to 2.8 μl of 0.1 M citrate buffer (pH 5.5) to which was added 1.2 μl of carrier free ^111In (Nordion) ([…]) and the chelate was analyzed by TLC. 4 μl of loaded chelate was added to the 105 μl of Fab-DOTA in medium. This solution was incubated for 30 min. at room temperature. The reaction was stopped by separation of excess chelate by gel filtration spin chromatography (Penefsky column). 20 μl of eluant was added to 5 μl of sample application buffer containing β-mercaptoethanol (5×SDS PAGE SAB), boiled and reduced for 10 min. at 95° C. This was loaded onto a 1020% SDS-Page gel and electrophoriesed for 1 hr at 200V. The gel was fixed and dried via standard protocols and then exposed to a phosphorimager plate for 12 h. The plate was visualized with a Storm 640 phosphorimager (Molecular Dymanics).
In-labeled electrophilic chelates were incubated in Fab-containing culture medium to investigate whether either of the mutant antibodies would bind irreversibly to its target. Serum-containing culture medium was used as a representation of typical biological media. […] We incubated ^111In-labeled chelates bearing electrophilic acrylamido, chloroproprionamido, or chloroacetamido groups at physiological pH and temperature with raw tissue culture medium from the cells expressing the recombinant antibodies. As a control, an ^111In-labeled chelate bearing the non-electrophilic amino group was also included. At various times after addition of the radioactive chelates, we removed samples from the incubation and applied them to a gel filtration spin column to remove excess radiolabeled chelate.
The samples were analyzed by SDS-PAGE and visualized by phosphorimager. Separation under reducing and denaturing conditions on SDS-PAGE will separate the light chain from the heavy chain of each Fab, functionally destroying the antibody-binding pocket.

native antibody CHA255 = assay: Control incubation of chelates with native antibody CHA255 (covalent labeling); type: biochemical, mouse; settings: indium chelates incubated with native antibody; BABE: after several hours
Method: As a control, the same chelates were incubated with native antibody CHA255, to see if they would covalently label it.

human serum albumin = human serum albumin (Homo sapiens, UniProt P02768); assay: Stability of 111In-labeled bifunctional chelates incubated with human serum albumin (TLC); type: in vitro ADME; settings: after 20 hrs; 20 mM Hepes, pH 7.4, 37° C.; 1 mM free sulfhydryl as human serum albumin
Chain of human serum albumin (P02768 25-609): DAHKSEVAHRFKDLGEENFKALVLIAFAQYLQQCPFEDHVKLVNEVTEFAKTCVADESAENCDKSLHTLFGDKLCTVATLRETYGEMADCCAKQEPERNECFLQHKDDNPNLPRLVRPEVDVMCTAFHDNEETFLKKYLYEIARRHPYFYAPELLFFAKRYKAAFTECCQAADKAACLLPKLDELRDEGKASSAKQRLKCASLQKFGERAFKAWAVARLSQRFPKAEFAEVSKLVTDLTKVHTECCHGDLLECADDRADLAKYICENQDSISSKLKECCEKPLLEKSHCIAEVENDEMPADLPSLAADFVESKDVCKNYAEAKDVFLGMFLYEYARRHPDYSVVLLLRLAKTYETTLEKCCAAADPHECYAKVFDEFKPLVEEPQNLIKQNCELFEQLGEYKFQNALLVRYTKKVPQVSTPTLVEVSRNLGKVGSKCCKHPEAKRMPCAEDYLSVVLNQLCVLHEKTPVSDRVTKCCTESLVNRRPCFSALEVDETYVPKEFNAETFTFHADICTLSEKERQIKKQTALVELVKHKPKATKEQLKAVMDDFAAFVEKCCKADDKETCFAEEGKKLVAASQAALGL
Method: The electrophilic chelates AABE, CABE, BABE were labeled with indium-111 and incubated in a Hepes buffered solution at physiological pH and temperature (20 mM Hepes, pH 7.4, 37° C.) containing 1 mM free sulfhydryl groups in the form of human serum albumin-approximating the concentration of thiols in plasma.
The reactive chelates 5–7 and aminobenzyl-EDTA (“ABE”) were labeled with ^111In and analyzed by TLC (50:50 Methanol/10% NaOAc pH8.2) to show complete chelation. To 0.5 mL of human serum albumin solution was added 2 μl of one of the labeled chelates. […] The vials were mixed by manual agitation, and 2 μl was removed and analyzed by TLC.
The fraction unreacted is plotted versus incubation time in FIG. 6. After 20 hrs, >95% of the In-AABE and In-CABE molecules were unreacted, while most of the In-BABE was attached to albumin. This confirmed the expectation that AABE and CABE are stable, and are good candidates for pretargeting. We infer that these chelates should be unreactive in blood for the length of time needed for pretargeting (40 min–4 hrs); if not, many other choices are available.

Row | Compound | crosslink of chelate with S95C Fab light chain (radiolabeled 26 kDa band) (S95C Fab light chain) | crosslink of chelate with S95C Fab light chain (radiolabeled 26 kDa band) (S95C Fab light chain; listed as In-AABE) | covalent attachment to native CHA255 (native antibody CHA255) | chelate attached to albumin (human serum albumin) | crosslink of chelate with S95C Fab light chain (radiolabeled 26 kDa band) (S95C Fab light chain; listed as In-CABE)
1 | C=CC(=O)Nc1ccc(CC(CN(CC(=O)O)CC(=O)O)N(CC(=O)O)CC(=O)O)cc1 (stereo not shown) [AABE, Acrylamidobenzyl-EDTA] | 26 kDa band | reacted equally well | did not covalently attach |  | 
2 | Nc1ccc(CC(CN(CC(=O)O)CC(=O)O)N(CC(=O)O)CC(=O)O)cc1 (stereo not shown) [ABE, aminobenzyl-EDTA, reference compound] | does not show crosslinks |  | did not covalently attach |  | 
3 | O=C(O)CN(CC(=O)O)CC(Cc1ccc(NC(=O)CBr)cc1)N(CC(=O)O)CC(=O)O (stereo not shown) [BABE, bromoacetylamidobenzyl] |  |  | did react to some degree | most | 
4 | O=C(O)CN(CC(=O)O)CC(Cc1ccc(NC(=O)CCl)cc1)N(CC(=O)O)CC(=O)O (stereo not shown) [CABE, chloroacetylamidobenzyl] | crosslink |  | did not covalently attach |  | reacted equally well
